Results taken from US9040542B2, “Solid forms of gyrase inhibitor (R)-1-ethyl-3-[6-fluoro-5-[2-(1-hydroxy-1-methyl-ethyl)pryimidin-5-yl]-7-(tetrahydrofuran-2-yl)-1H-benzimidazol-2-yl]urea” (priority 2011, dated 2015).

What was measured:
S. aureus TopoIV enzyme = S. aureus TopoIV enzyme (Staphylococcus aureus, UniProt P0C1S7); test: DNA Topo IV ATPase Assay; assay type: biochemical; settings: 30° C., read-out: Ki, Inhibition of S. aureus DNA Topo IV
Protocol: The conversion of ATP to ADP by S. aureus TopoIV enzyme is coupled to the conversion of NADH to NAD+, and the progress of the reaction is measured by the change in absorbance at 340 nm. TopoIV (64 nM) is incubated with the selected compound (3% DMSO final) in buffer for 10 minutes at 30° C. The buffer consists of 100 mM Tris 7.5, 1.5 mM MgCl2, 200 mM K•Glutamate, 2.5 mM phosphoenol pyruvate, 0.2 mM NADH, 1 mM DTT, 5 μg/mL linearized DNA, 50 μg/mL BSA, 30 μg/mL pyruvate kinase, and 10 μg/mL lactate dehyrodgenase (LDH). The reaction is initiated with ATP, and rates are monitored continuously for 20 minutes at 30° C. on a Molecular Devices SpectraMAX plate reader. The inhibition constant, Ki, and the IC50 are determined from plots of rate vs. concentration of selected compound fit to the Morrison Equation for tight binding inhibitors.

S. aureus DNA gyrase = S. aureus DNA gyrase (Staphylococcus aureus, UniProt P0A0K8); test: DNA Gyrase ATPase Assay; assay type: biochemical; settings: 30° C., read-out: Ki, Inhibition of S. aureus DNA Gyrase
Protocol: The ATP hydrolysis activity of S. aureus DNA gyrase is measured by coupling the production of ADP through pyruvate kinase/lactate dehydrogenase to the oxidation of NADH. This method has been described previously (Tamura and Gellert, 1990, J. Biol. Chem., 265, 21342).
ATPase assays are carried out at 30° C. in buffered solutions containing 100 mM TRIS pH 7.6, 1.5 mM MgCl2, 150 mM KCl. The coupling system contains final concentrations of 2.5 mM phosphoenol pyruvate, 200 μM nicotinamide adenine dinucleotide (NADH), 1 mM DTT, 30 ug/ml pyruvate kinase, and 10 ug/ml lactate dehydrogenase. The enzyme (90 nM final concentration) and a DMSO solution (3% final concentration) of a compound is added. The reaction mixture is allowed to incubate for 10 minutes at 30° C. The reaction is initiated by the addition of ATP to a final concentration of 0.9 mM, and the rate of NADH disappearance is monitored at 340 nanometers over the course of 10 minutes. The Ki and IC50 values are determined from rate versus concentration profiles.

[1] = Stability data of solid forms on storage; assay type: physicochemical

**Q.** With `CCNC(=O)Nc1nc2cc(-c3cnc(C(C)(C)O)nc3)c(F)c([C@H]3CCCO3)c2[nH]1` [Compound 23, 1-ethyl-3-[6-fluoro-5-[2-(1-hydroxy-1-methyl-ethyl)pyrimidin-5-yl]-7-[(2R)-tetrahydrofuran-2-yl]-1H-benzimidazol-2-yl]urea] as the compound, how does the Ki (S. aureus TopoIV enzyme) read?
**A.** The Ki was 12 nM.

**Q.** And the Ki (S. aureus DNA gyrase)?
**A.** The Ki was 9 nM.

**Q.** What about the “stability of solid form” value ([1]; 40° C. with relative humidity of up to 75%) of the same compound?
**A.** The value was “stable for at least one month”.

**Q.** And the “chemical and physical stability” value ([1]; all storage conditions (25° C./60% RH, 40° C./ambient, and 40° C./75% RH), 1 month timepoint)?
**A.** Its value is “chemically and physically stable”.
